Measurements as given in the supplement of paper PMC10307832.

What was measured:
Assay in all cases: relative viability (nuclei count vs DMSO), 5 days (fraction); higher = more cells survive
Axitinib + OSI-027 = compound: CNC(=O)c1ccccc1Sc1ccc2c(/C=C/c3ccccn3)n[nH]c2c1 [Axitinib] + COc1cccc2cc(-c3nc([C@H]4CC[C@H](C(=O)O)CC4)n4ncnc(N)c34)[nH]c12 [OSI-027] (partner 0.5 µM)
In short: (§1)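 Nuclei were stained with Hoechst during a one-step fixation (final 0.05% Triton X-100, 1% formaldehyde, 1 ug/ml Hoechst) carried out 5 days after dosing, then counted on 4× images. The cells, lung cancer lines in 1536-well plates, had been dosed by pin tool the day after seeding with one drug alone or a fixed anchor-drug dose plus five library-drug doses (not always all listed) in √10 steps. Relative viability is the nuclei count in treated wells divided by that in vehicle wells, and each value is the median of duplicate plates.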

Bemcentinib + Linsitinib = compound: Nc1nc(Nc2ccc3c(c2)CC[C@@H](N2CCCC2)CC3)nn1-c1cc2c(nn1)-c1ccccc1CCC2 [Bemcentinib] + C[C@]1(O)C[C@@H](c2nc(-c3ccc4ccc(-c5ccccc5)nc4c3)c3c(N)nccn32)C1 [Linsitinib] (partner 1 µM)
In short: as §1

[1] = compound: CC1=CC=C(C=C1)C(=O)CN2C3=C(CCCC3)SC2=N [Pifithrin_alpha] + CC1(C)CCC(c2ccc(Cl)cc2)=C(CN2CCN(c3ccc(C(=O)NS(=O)(=O)c4ccc(N[C@H](CCN5CCOCC5)CSc5ccccc5)c(S(=O)(=O)C(F)(F)F)c4)cc3)CC2)C1 [Navitoclax] (partner 0.5 µM)
In short: as §1

Bemcentinib + Trametinib = compound: Nc1nc(Nc2ccc3c(c2)CC[C@@H](N2CCCC2)CC3)nn1-c1cc2c(nn1)-c1ccccc1CCC2 [Bemcentinib] + CC(=O)Nc1cccc(-n2c(=O)n(C3CC3)c(=O)c3c(Nc4ccc(I)cc4F)n(C)c(=O)c(C)c32)c1 [Trametinib] (partner 0.02 µM)
In short: as §1

| Cell Line | relative viability (Axitinib + OSI-027; first compound 0.005 µM) | relative viability (Axitinib + OSI-027; first compound 0.01581 µM) | relative viability (Axitinib + OSI-027; first compound 0.05 µM) | relative viability (Axitinib + OSI-027; first compound 0.1581 µM) | relative viability (Axitinib + OSI-027; first compound 0.5 µM) | relative viability (Bemcentinib + Linsitinib; first compound 0.04 µM) | relative viability (Bemcentinib + Linsitinib; first compound 0.1265 µM) | relative viability (Bemcentinib + Linsitinib; first compound 0.4 µM) | relative viability (Bemcentinib + Linsitinib; first compound 1.265 µM) | relative viability (Bemcentinib + Linsitinib; first compound 4 µM) | relative viability ([1]; first compound 1 µM) | relative viability ([1]; first compound 3.162 µM) | relative viability ([1]; first compound 10 µM) | relative viability ([1]; first compound 31.62 µM) | relative viability ([1]; first compound 100 µM) | relative viability (Bemcentinib + Trametinib; first compound 0.04 µM) | relative viability (Bemcentinib + Trametinib; first compound 0.1265 µM) | relative viability (Bemcentinib + Trametinib; first compound 0.4 µM) | relative viability (Bemcentinib + Trametinib; first compound 1.265 µM) | relative viability (Bemcentinib + Trametinib; first compound 4 µM) |
| --- | --- | --- | --- | --- | --- | --- | --- | --- | --- | --- | --- | --- | --- | --- | --- | --- | --- | --- | --- | --- |
| PC-3 [JPC-3] | 0.762 | 0.668 | 0.809 | 0.72 | 0.915 | 0.967 | 0.999 | 0.902 | 0.957 | 1.07 | 0.749 | 0.74 | 0.746 | 0.789 | 0.726 | 0.664 | 0.775 | 0.725 | 0.632 | 0.636 |
| HCC-366 | 0.979 | 0.895 | 1.09 | 1.02 | 0.939 | 0.612 | 0.921 | 1.14 | 0.604 | 0.881 | 1.12 | 1.11 | 0.886 | – | 0.925 | 0.368 | 0.428 | 0.407 | 0.409 | 0.419 |
| NCI-H2405 | 0.654 | 0.666 | 0.675 | 0.643 | 0.722 | 0.874 | 0.966 | 0.965 | 0.918 | 0.896 | – | 0.81 | 0.813 | 0.635 | 0.689 | 0.6 | 0.732 | 0.621 | 0.7 | 0.722 |
| LU99A | 0.314 | 0.317 | 0.342 | 0.289 | 0.304 | 0.524 | 0.555 | 0.56 | 0.499 | 0.562 | 0.823 | 0.782 | 0.874 | – | 0.892 | 0.516 | 0.641 | 0.55 | 0.596 | 0.51 |
| LCLC-97TM1 | 0.589 | 0.51 | 0.427 | 0.48 | 0.475 | 0.183 | 0.216 | – | 0.204 | 0.196 | – | 0.548 | 0.513 | – | 0.425 | 0.206 | 0.195 | 0.2 | 0.232 | 0.2 |
| A-427 | 0.422 | 0.329 | 0.442 | 0.434 | 0.486 | – | 1.14 | 1.07 | 1.14 | 1.14 | 0.803 | 0.843 | 0.79 | 0.773 | 0.933 | 0.711 | 0.696 | 0.812 | 0.773 | 0.668 |
| EMC-BAC-2 | 0.409 | 0.374 | 0.359 | 0.426 | 0.409 | 0.816 | 0.845 | 0.879 | 0.889 | 0.871 | 1.22 | 1.29 | 1.17 | 0.933 | 1.31 | 0.874 | 0.896 | 0.873 | 0.897 | 0.967 |
| NCI-H2228 | 0.518 | 0.611 | 0.716 | 0.532 | 0.659 | – | 0.627 | 0.733 | 0.585 | 1.11 | 0.88 | 0.839 | 0.804 | 0.599 | 0.729 | 0.202 | 0.652 | 0.533 | 0.651 | 0.565 |
| IA-LM | – | – | – | – | – | 0.661 | 0.962 | 0.654 | 0.697 | 0.713 | 0.747 | 0.339 | 0.259 | 0.275 | 0.262 | – | – | – | – | – |
| NCI-H838 | 0.5 | 0.361 | 0.436 | 0.38 | 0.493 | 0.995 | 1.08 | 1.02 | 1.08 | 1.05 | 1.14 | 1.06 | 1 | 0.833 | 0.882 | 0.501 | 0.535 | 0.533 | 0.432 | 0.534 |
| COR-L 105 | 0.762 | 0.509 | 0.681 | 0.722 | 0.725 | 0.975 | 0.943 | 1.15 | 1.02 | 0.871 | 0.65 | 0.663 | 0.722 | 0.63 | 0.626 | 0.453 | 0.48 | 0.458 | 0.39 | 0.377 |
| NCI-H358 | 0.785 | 0.737 | 0.874 | 0.681 | 1.02 | 0.77 | 0.795 | 0.788 | 0.668 | 0.796 | – | – | – | – | – | 0.12 | 0.125 | 0.118 | 0.134 | 0.145 |
| SK-MES-1 | 0.748 | 0.647 | 0.638 | 0.642 | 0.854 | 1.18 | 1.16 | 1.15 | 1.32 | 1.12 | 1.19 | 1.17 | 1.16 | 0.829 | 0.924 | 0.625 | 0.587 | 0.561 | 0.587 | 0.61 |
| LCLC-103H | 0.461 | 0.487 | 0.472 | 0.432 | 0.535 | 1.17 | 1.09 | 1.11 | 1.27 | 1.22 | – | – | – | – | – | 0.706 | 0.736 | 0.679 | 0.712 | 0.707 |
| HARA | 0.445 | 0.414 | 0.666 | 0.49 | 0.802 | 1.01 | 1.07 | 1.01 | 0.994 | 1.05 | 1.17 | 1.22 | 1.17 | 0.767 | 0.945 | 0.769 | 0.83 | 0.69 | 0.67 | 0.96 |
| ABC-1 | 0.597 | 0.436 | 0.482 | 0.456 | 0.448 | 0.785 | 0.811 | 0.881 | 0.801 | 0.682 | – | – | – | – | – | – | – | – | – | – |
| NCI-H727 | 0.785 | 0.425 | 0.54 | 0.528 | 0.699 | 0.331 | 0.286 | 0.288 | 0.3 | 0.293 | 0.356 | 0.412 | 0.307 | 0.244 | 0.271 | 0.39 | 0.381 | 0.385 | 0.424 | 0.414 |
